Measurements as given in ChEMBL document CHEMBL4433219, “EC18 as a Tool To Understand the Role of HCN4 Channels in Mediating Hyperpolarization-Activated Current in Tissues” (ACS Med Chem Lett, 2019).

Legend:
[1] = molecular target: T1, Potassium/sodium hyperpolarization-activated cyclic nucleotide-gated channel 4 (Homo sapiens) (UniProt Q9Y3Q4); assay: Inhibition of human HCN4 expressed in HEK293 cells assessed as reduction in hyperpolarization activated current at 5 uM at holding potential of -80 mV by patch clamp assay relative to control; assay type: cell-based
T1 sequence (whole entry): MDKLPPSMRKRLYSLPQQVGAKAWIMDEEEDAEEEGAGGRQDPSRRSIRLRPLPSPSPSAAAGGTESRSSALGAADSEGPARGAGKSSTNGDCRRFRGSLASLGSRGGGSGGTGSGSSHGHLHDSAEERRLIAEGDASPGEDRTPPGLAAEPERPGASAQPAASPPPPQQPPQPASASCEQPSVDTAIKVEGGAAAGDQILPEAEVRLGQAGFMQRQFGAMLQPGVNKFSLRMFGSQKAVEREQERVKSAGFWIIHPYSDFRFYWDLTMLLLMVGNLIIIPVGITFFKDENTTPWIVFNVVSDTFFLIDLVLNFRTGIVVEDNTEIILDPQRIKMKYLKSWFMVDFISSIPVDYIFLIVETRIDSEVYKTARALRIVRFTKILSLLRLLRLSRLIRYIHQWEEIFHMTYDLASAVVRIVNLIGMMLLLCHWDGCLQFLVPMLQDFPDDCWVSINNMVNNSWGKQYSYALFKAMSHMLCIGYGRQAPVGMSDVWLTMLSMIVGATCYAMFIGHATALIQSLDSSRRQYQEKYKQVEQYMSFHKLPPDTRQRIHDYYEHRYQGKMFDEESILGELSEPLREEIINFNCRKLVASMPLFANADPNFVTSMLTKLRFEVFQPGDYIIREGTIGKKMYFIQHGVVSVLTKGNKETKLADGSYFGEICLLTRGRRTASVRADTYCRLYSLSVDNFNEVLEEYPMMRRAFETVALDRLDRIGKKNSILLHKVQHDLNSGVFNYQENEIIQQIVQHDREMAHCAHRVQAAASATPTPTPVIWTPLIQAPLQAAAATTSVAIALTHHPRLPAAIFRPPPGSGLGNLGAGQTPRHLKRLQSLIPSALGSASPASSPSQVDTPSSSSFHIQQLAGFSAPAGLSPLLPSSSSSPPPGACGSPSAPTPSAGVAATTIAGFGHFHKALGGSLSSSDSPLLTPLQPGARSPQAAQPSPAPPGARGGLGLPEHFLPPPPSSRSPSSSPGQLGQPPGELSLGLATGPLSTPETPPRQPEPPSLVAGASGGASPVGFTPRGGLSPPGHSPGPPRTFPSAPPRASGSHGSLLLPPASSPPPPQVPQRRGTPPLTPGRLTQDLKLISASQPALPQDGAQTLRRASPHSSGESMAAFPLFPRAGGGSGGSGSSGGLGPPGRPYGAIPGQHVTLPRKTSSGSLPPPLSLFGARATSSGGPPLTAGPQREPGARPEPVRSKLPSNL

[2] = molecular target: T1, Potassium/sodium hyperpolarization-activated cyclic nucleotide-gated channel 4 (Homo sapiens); assay: Inhibition of human HCN4 expressed in HEK293 cells assessed as reduction in hyperpolarization activated current at 10 uM at holding potential of -80 mV by patch clamp assay relative to control; assay type: cell-based

Row | SMILES | inhibition [1] | inhibition [2]
1 | COc1ccc(OCCN(C)[C@@H]2CCC[C@H](N3CCc4cc(OC)c(OC)cc4CC3=O)C2)cc1OC | 48% | –
2 | COc1ccc(CN(Cc2ccc(OC)c(OC)c2)[C@@H]2CCC[C@H](N3CCc4cc(OC)c(OC)cc4CC3=O)C2)cc1OC | 4% | –
3 | COc1ccc(/C=C/CN(C)[C@@H]2CCC[C@H](N3CCc4cc(OC)c(OC)cc4CC3=O)C2)cc1OC (relative stereo) | 64% | –
4 | COc1ccc(CN(C)[C@@H]2CCC[C@H](N3CCc4cc(OC)c(OC)cc4CC3=O)C2)cc1OC (relative stereo) | 21% | –
5 | COc1ccc(CCN(C)[C@@H]2CC=C[C@H](N3C=Cc4cc(OC)c(OC)cc4CC3=O)C2)cc1OC | 30% | –
6 | COc1ccc(CCN(C)CCCN2CCc3cc(OC)c(OC)cc3CC2=O)cc1OC | – | 59%

Continued, values first:

Row | inhibition [1] | inhibition [2] | SMILES
7 | 46% | – | COc1ccc(CCN(C)C2CCCC(N3CCc4cc(OC)c(OC)cc4CC3=O)C2)cc1OC (single isomer, unassigned; (+))
8 | 47% | – | COc1ccc(CCCN(C)[C@@H]2CCC[C@H](N3CCc4cc(OC)c(OC)cc4CC3=O)C2)cc1OC (relative stereo)
9 | 45% | – | COc1ccc(CCN(C)C2CCCC(N3CCc4cc(OC)c(OC)cc4CC3=O)C2)cc1OC (single isomer, unassigned; (-))
